Assays:
[1] = system: myeloperoxidase (MPO) activity; test: Phorbol ester (TPA)-induced mouse ear inflammation assay: cell infiltration (neutrophil accumulation by myeloperoxidase activity); type: in vivo, CD-1 mice; settings: topical, six hours
Description: (§1) Anti-inflammatory activity of the test compounds was determined in the phorbol ester-induced mouse ear inflammation model. [Young J M, Wagner B M and Spires D A, J Invest Dermatol, 80, 48-52 (1983)]. In this assay, an inflammatory reaction is induced by the topical application of 0.01% (w/v) tetradecanoylphorbol-13-acetate (TPA) to the ears of CD-1 mice. An acute inflammatory reaction results in which the ears swell and inflammatory cells infiltrate the ear tissue. TPA, with and without various concentrations of test compound, was applied to the inner and outer aspects of the ears (10 μl/surface). After six hours, the mice were sacrificed and the ears were removed. Ear tissue punches (5/16") were taken from each ear and weighed to measure edema. The ear punches were then processed for the determination of neutrophil accumulation by measurement of myeloperoxidase (MPO) activity by the method of Bradley et al. [Bradley P P et al, J Invest Dermatol, 78, 206-209 (1982)]. MPO is a specific marker for the presence of neutrophils in tissue.
(§2) The anti-inflammatory activity produced by the test compound is calculated by comparing the edema or MPO values obtained for the drug-treated ears to those obtained for non-drug treated ears. Percent inhibition values were determined by the equation: [formula] […] The ED50 is estimated to be 0.8%.

human platelet PLA2 = target: T1, human platelet PLA2 (Homo sapiens, UniProt P14555); test: PLA2 Inhibition Assay (14C-oleate labeled E. coli membrane substrate); type: biochemical; settings: preincubation 7 min, incubation 30 min, 37° C., pH 7; unit inferred; read-out: IC50 for inhibition of human platelet phospholipase A2
T1 construct: The enzyme was isolated from human platelets; from tissue; host or cells: human platelets
T1 sequence (P14555 21-144): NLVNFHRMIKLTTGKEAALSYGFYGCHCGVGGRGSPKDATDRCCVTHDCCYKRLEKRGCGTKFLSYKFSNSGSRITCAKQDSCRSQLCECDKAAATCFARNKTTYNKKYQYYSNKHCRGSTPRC
Description: This assay is used to measure the inhibition of human platelet PLA2 by test compounds. The method used was similar to that reported by Franson et al. [Jesse RL and Franson RC, Biochem Biophys Acta, 575, 467-470 (1979)]. [Franson RC, Patriarca P and Elsback P, J Lipid Res 15, 380-388 (1974)]. The enzyme was isolated from human platelets. The substrate used consisted of ^14 C-oleate labeled E. coli membranes. E. Coli cells were grown in the presence of ^14 C-oleic acid and then autoclaved to prepare membranes. In the assay, various concentrations of test compounds are preincubated with PLA2 (7.5 μg/ml) in a buffer consisting of 25 mM HEPES (pH 7) 150 mM NaCl, 5.0 mM Cacl2, and 10% DMSO (test compound solvent) at 37° C. for 7 minutes. The E. coli membrane substrate is then added (0.1 mM phospholipid, 0.5 μCi/umol) and the reaction is incubated at 37° C. for 30 minutes. The final reaction volume is 0.1 ml. The reaction is quenched with tetrahydrofuran (1.9 ml), and the entire solution is applied to a solid-phase extraction column (aminopropylresin, Analytichem). […] The amount of free fatty acid product is determined by liquid scintillation counting. The amount of inhibition produced by the test compound is calculated by comparing the number of counts obtained in the presence of the compound to that obtained for the control reactions (test compound solvent only). […]

[2] = system: TPA-induced mouse ear edema; test: Phorbol ester (TPA)-induced mouse ear inflammation assay: edema (ear weight); type: in vivo, CD-1 mice; settings: topical, six hours
Description: as §1, §2

| Compound | Blocking of edema and cell infiltration (in words) ([1]; statement covers edema and cell infiltration) | ED50, inhibition of cell infiltration ([1]; with TPA 0.01% (w/v), MPO activity) [%] | IC50 (human platelet PLA2) [µM] | Blocking of TPA-induced mouse ear edema (in words) [2] | ED50, TPA-induced mouse ear edema ([2]; with TPA 0.01% (w/v)) [%] |
| --- | --- | --- | --- | --- | --- |
| CC1=C(/C=C/C(C)=C/C=C(/C(C)=C\C(=O)O)c2cccc(C(=O)O)c2)C(C)(C)CCC1 [Compound I, 13-CIS-12-(3'-CARBOXYPHENYL)RETINOIC ACID] | effectively blocks edema and cell infiltration | < 0.1 | 40 | dose-dependently blocks TPA-induced mouse ear edema | ~0.8 |
| CC1=C(/C=C/C(C)=C/C=C/C(C)=C/C(=O)O)C(C)(C)CCC1 [reference compound] |  |  | > 500 |  |  |

From US5141959A, “Isoprenoid phospholipase A2 inhibitors and preparations comprising same” (Bristol-Myers Squibb Company, priority 1990, dated 1992)
